Assays:
PANC-1 [1] = experiment: Cytotoxicity against human PANC-1 cells assessed as inhibition of cell growth at 30 uM incubated for 48 hrs by MTT assay relative to control; type: functional
MCF7 [2] = experiment: Cytotoxicity against human MCF7 cells assessed as inhibition of cell growth at 30 uM incubated for 48 hrs by MTT assay relative to control; type: functional
DU-145 = experiment: Cytotoxicity against human DU-145 cells assessed as inhibition of cell growth incubated for 48 hrs by MTT assay; type: functional, cell-based; settings: DU-145, 48 h
[3] = Safety index, ratio of IC50 for HEK293 cells to IC50 for human MDA-MB-231 cells; type: toxicity; settings: HEK293 cells versus MDA-MB-231 cells, read-out: Ratio IC50
A549 = experiment: Cytotoxicity against human A549 cells assessed as inhibition of cell growth incubated for 48 hrs by MTT assay; type: functional, cell-based; settings: A549, 48 h
[4] = Safety index, ratio of IC50 for CHO-K1 cells to IC50 for human DU-145 cells; type: toxicity; settings: Chinese hamster (CHO-K1), CHO-K1 cells versus DU-145 cells, read-out: Ratio IC50
[5] = Safety index, ratio of IC50 for CHO-K1 cells to IC50 for human PANC-1 cells; type: toxicity; settings: Chinese hamster (CHO-K1), CHO-K1 cells versus PANC-1 cells, read-out: Ratio IC50
[6] = Cytotoxicity against HEK293 cells assessed as inhibition of cell growth incubated for 48 hrs by MTT assay; type: toxicity, cell-based; settings: human
[7] = Safety index, ratio of IC50 for CHO-K1 cells to IC50 for human U-937 cells; type: toxicity; settings: Chinese hamster (CHO-K1), CHO-K1 cells versus U-937 cells, read-out: Ratio IC50
[8] = Cytotoxicity against CHO-K1 cells assessed as inhibition of cell growth incubated for 48 hrs by MTT assay; type: toxicity, cell-based, Cricetulus griseus; settings: Chinese hamster
MCF7 [9] = experiment: Cytotoxicity against human MCF7 cells assessed as inhibition of cell growth incubated for 48 hrs by MTT assay; type: functional, cell-based; settings: MCF7, 48 h
[10] = Safety index, ratio of IC50 for HEK293 cells to IC50 for human MCF7 cells; type: toxicity; settings: HEK293 cells versus MCF7 cells, read-out: Ratio IC50
[11] = Safety index, ratio of IC50 for HEK293 cells to IC50 for human DU-145 cells; type: toxicity; settings: HEK293 cells versus DU-145 cells, read-out: Ratio IC50
[12] = Safety index, ratio of IC50 for HEK293 cells to IC50 for human PANC-1 cells; type: toxicity; settings: HEK293 cells versus PANC-1 cells, read-out: Ratio IC50
[13] = Safety index, ratio of IC50 for CHO-K1 cells to IC50 for human MCF7 cells; type: toxicity; settings: Chinese hamster (CHO-K1), CHO-K1 cells versus MCF7 cells, read-out: Ratio IC50
U-937 = experiment: Cytotoxicity against human U-937 cells assessed as inhibition of cell growth incubated for 48 hrs by MTT assay; type: functional, cell-based; settings: U-937, 48 h
PANC-1 [14] = experiment: Cytotoxicity against human PANC-1 cells assessed as inhibition of cell growth incubated for 48 hrs by MTT assay; type: functional, cell-based; settings: PANC-1, 48 h
[15] = Safety index, ratio of IC50 for HEK293 cells to IC50 for human U-937 cells; type: toxicity; settings: HEK293 cells versus U-937 cells, read-out: Ratio IC50
[16] = Safety index, ratio of IC50 for CHO-K1 cells to IC50 for human HT-29 cells; type: toxicity; settings: Chinese hamster (CHO-K1), CHO-K1 cells versus HT-29 cells, read-out: Ratio IC50
[17] = Safety index, ratio of IC50 for CHO-K1 cells to IC50 for human MDA-MB-231 cells; type: toxicity; settings: Chinese hamster (CHO-K1), CHO-K1 cells versus MDA-MB-231 cells, read-out: Ratio IC50
[18] = Safety index, ratio of IC50 for CHO-K1 cells to IC50 for human A549 cells; type: toxicity; settings: Chinese hamster (CHO-K1), CHO-K1 cells versus A549 cells, read-out: Ratio IC50
MDA-MB-231 = experiment: Cytotoxicity against human MDA-MB-231 cells assessed as inhibition of cell growth incubated for 48 hrs by MTT assay; type: functional, cell-based; settings: MDA-MB-231, 48 h
HT-29 = experiment: Cytotoxicity against human HT-29 cells assessed as inhibition of cell growth incubated for 48 hrs by MTT assay; type: functional, cell-based; settings: HT-29, 48 h
[19] = Safety index, ratio of IC50 for HEK293 cells to IC50 for human A549 cells; type: toxicity; settings: HEK293 cells versus A549 cells, read-out: Ratio IC50
[20] = Safety index, ratio of IC50 for HEK293 cells to IC50 for human HT-29 cells; type: toxicity; settings: HEK293 cells versus HT-29 cells, read-out: Ratio IC50

CCC(/C=C1\C(=O)Nc2nc(C)c(O)c(C)c21)CC showed an inhibition at 30 µM (PANC-1 [1]) of 45% and an inhibition at 30 µM (MCF7 [2]) of 30.5%.
In the case of Cc1nc2c(c(C)c1O)/C(=C/c1cccnc1)C(=O)N2, the IC50 (DU-145) is reported as 1.2 µM, the selectivity ratio [3] is reported as 3.4 and the IC50 (A549) is reported as 13.8 µM. It also gave an inhibition at 30 µM (PANC-1 [1]) of 72.8%, a selectivity ratio [4] of 65.4 and a selectivity ratio [5] of 1.5. For the same molecule, the IC50 at 48 h [6] was 33 µM, the selectivity ratio [7] was 5.4 and the IC50 at 48 h [8] was 78.5 µM. The IC50 (MCF7 [9]) was 17.4 µM, the selectivity ratio [10] was 1.9 and the selectivity ratio [11] was 27.5. The selectivity ratio [12] was 0.6, the selectivity ratio [13] was 4.5 and the IC50 (U-937) was 14.5 µM. For the same molecule, the IC50 (PANC-1 [14]) was 51.3 µM, the selectivity ratio [15] was 2.3 and the selectivity ratio [16] was 3.9. The selectivity ratio [17] was 8.2, the selectivity ratio [18] was 5.7 and the IC50 (MDA-MB-231) was 9.6 µM. For the same molecule, the inhibition at 30 µM (MCF7 [2]) was 78%, the IC50 (HT-29) was 20 µM and the selectivity ratio [19] was 2.4. The selectivity ratio [20] was 1.7.
Work on Cc1ccsc1/C=C1\C(=O)Nc2nc(C)c(O)c(C)c21 yielded an inhibition at 30 µM (PANC-1 [1]) of 47.3% and an inhibition at 30 µM (MCF7 [2]) of 59%.
For COc1ccc(/C=C2\C(=O)Nc3nc(C)c(O)c(C)c32)cc1, the inhibition at 30 µM (PANC-1 [1]) was 36.4% and the inhibition at 30 µM (MCF7 [2]) was 23.9%.
Work on COc1cc(/C=C/C=C2\C(=O)Nc3nc(C)c(O)c(C)c32)ccc1O yielded an inhibition at 30 µM (PANC-1 [1]) of 24.5% and an inhibition at 30 µM (MCF7 [2]) of 6.9%.
With Cc1nc2c(c(C)c1O)/C(=C/c1ccccn1)C(=O)N2 the inhibition at 30 µM (PANC-1 [1]) was 29.3% and the inhibition at 30 µM (MCF7 [2]) was 28.1%.
Work on Cc1nc2c(c(C)c1O)/C(=C/c1ccc3ccccc3c1)C(=O)N2 yielded an inhibition at 30 µM (PANC-1 [1]) of 29% and an inhibition at 30 µM (MCF7 [2]) of 30.5%.
Work on Cc1nc2c(c(C)c1O)/C(=C/c1cnc[nH]1)C(=O)N2 yielded an inhibition at 30 µM (PANC-1 [1]) of 4.5% and an inhibition at 30 µM (MCF7 [2]) of 4.1%.
Molecule CCCCC/C=C1\C(=O)Nc2nc(C)c(O)c(C)c21 has an IC50 (DU-145) of 11 µM, an IC50 (A549) of 7.6 µM and an inhibition at 30 µM (PANC-1 [1]) of 77.5%. It also gave an IC50 at 48 h [6] of 6.1 µM, an IC50 at 48 h [8] of 20.9 µM and an IC50 (MCF7 [9]) of 13.9 µM. The IC50 (U-937) was 11.5 µM, the IC50 (PANC-1 [14]) was 8.1 µM and the IC50 (MDA-MB-231) was 12.6 µM. It also gave an inhibition at 30 µM (MCF7 [2]) of 76.9% and an IC50 (HT-29) of 12.9 µM.
Cc1nc2c(c(C)c1O)/C(=C/c1ccc(F)cc1)C(=O)N2 showed an inhibition at 30 µM (PANC-1 [1]) of 51.9% and an inhibition at 30 µM (MCF7 [2]) of 48.3%.
With Cc1nc2c(c(C)c1O)/C(=C/c1ccc([N+](=O)[O-])cc1)C(=O)N2 the inhibition at 30 µM (PANC-1 [1]) was 32.6% and the inhibition at 30 µM (MCF7 [2]) was 16.3%.
COc1ccccc1/C=C1\C(=O)Nc2nc(C)c(O)c(C)c21 showed an inhibition at 30 µM (PANC-1 [1]) of 10.2% and an inhibition at 30 µM (MCF7 [2]) of 30.7%.
For Cc1nc2c(c(C)c1O)/C(=C/c1cccs1)C(=O)N2, the inhibition at 30 µM (PANC-1 [1]) was 42.3% and the inhibition at 30 µM (MCF7 [2]) was 57.8%.
Work on COc1cccc(/C=C2\C(=O)Nc3nc(C)c(O)c(C)c32)c1 yielded an inhibition at 30 µM (PANC-1 [1]) of 46.5% and an inhibition at 30 µM (MCF7 [2]) of 29.6%.
Molecule Cc1nc2c(c(C)c1O)/C(=C/c1c[nH]c3ccccc13)C(=O)N2 has an inhibition at 30 µM (PANC-1 [1]) of 17.1% and an inhibition at 30 µM (MCF7 [2]) of 2.4%.
With Cc1nc2c(c(C)c1O)/C(=C/C(c1ccccc1)c1ccccc1)C(=O)N2 the IC50 (DU-145) was 8.8 µM, the IC50 (A549) was 31.5 µM and the inhibition at 30 µM (PANC-1 [1]) was 81.5%. It also gave an IC50 at 48 h [6] of 37.8 µM, an IC50 at 48 h [8] of 30.1 µM and an IC50 (MCF7 [9]) of 6.4 µM. It also gave an IC50 (U-937) of 16.6 µM, an IC50 (PANC-1 [14]) of 7.4 µM and an IC50 (MDA-MB-231) of 22.9 µM. For the same molecule, the inhibition at 30 µM (MCF7 [2]) was 78.1% and the IC50 (HT-29) was 11.5 µM.
Work on Cc1nc2c(c(C)c1O)/C(=C/c1ccoc1)C(=O)N2 yielded an IC50 (DU-145) of 22.9 µM, an IC50 (A549) of over 90 µM and an inhibition at 30 µM (PANC-1 [1]) of 26.2%. The IC50 at 48 h [6] was over 90 µM, the IC50 at 48 h [8] was over 90 µM and the IC50 (MCF7 [9]) was 22.9 µM. For the same molecule, the IC50 (U-937) was 31.5 µM, the IC50 (PANC-1 [14]) was over 100 µM and the IC50 (MDA-MB-231) was over 90 µM. For the same molecule, the inhibition at 30 µM (MCF7 [2]) was 66.3% and the IC50 (HT-29) was over 90 µM.
Cc1nc2c(c(C)c1O)/C(=C/c1ccc(N(C)C)cc1)C(=O)N2 gave an IC50 (DU-145) of 1.1 µM, a selectivity ratio [3] of over 7.4 and an IC50 (A549) of 13.2 µM. The inhibition at 30 µM (PANC-1 [1]) was 66.4%, the selectivity ratio [4] was over 81.8 and the selectivity ratio [5] was over 6.5. It also gave an IC50 at 48 h [6] of over 90 µM, a selectivity ratio [7] of over 1 and an IC50 at 48 h [8] of over 90 µM. The IC50 (MCF7 [9]) was 13.2 µM, the selectivity ratio [10] was over 6.8 and the selectivity ratio [11] was over 81.8. For the same molecule, the selectivity ratio [12] was over 6.5, the selectivity ratio [13] was over 6.8 and the IC50 (U-937) was over 90 µM. It also gave an IC50 (PANC-1 [14]) of 13.8 µM, a selectivity ratio [15] of over 1 and a selectivity ratio [16] of over 2.5. The selectivity ratio [17] was over 7.4, the selectivity ratio [18] was over 6.8 and the IC50 (MDA-MB-231) was 12.1 µM. For the same molecule, the inhibition at 30 µM (MCF7 [2]) was 62.5%, the IC50 (HT-29) was 36.3 µM and the selectivity ratio [19] was over 6.8. For the same molecule, the selectivity ratio [20] was over 2.5.

Reference: ChEMBL document CHEMBL5360540, “Antitumor effect of 3-(quinolin-2-ylmethylene)-4,6-dimethyl-5-hydroxy-7-azaoxindole down-regulating the Gas6-Axl axis” (Eur J Med Chem, 2023)
